Data: PubChem BioAssay (NCI)
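How tested: cells in 96-well plates exposed to compound for 48 hours at five concentrations. GI50: concentration for 50% inhibition of growth. The concentration for full growth arrest is given as TGI.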

Columns and labels:
Assay in all cases: NCI anticancer screen, dose series, 48 h
786-0 renal = tested on: 786-0 renal
A498 renal = tested on: A498 renal
A549 NSCLC = tested on: A549 NSCLC
ACHN renal = tested on: ACHN renal
BT-549 breast = tested on: BT-549 breast
CCRF-CEM leukemia = tested on: CCRF-CEM leukemia
COLO 205 colon = tested on: COLO 205 colon
DU-145 prostate = tested on: DU-145 prostate
EKVX NSCLC = tested on: EKVX NSCLC
HCC-2998 colon = tested on: HCC-2998 colon
HCT-15 colon = tested on: HCT-15 colon
HL-60(TB) leukemia = tested on: HL-60(TB) leukemia
HOP-62 NSCLC = tested on: HOP-62 NSCLC
HOP-92 NSCLC = tested on: HOP-92 NSCLC
HS 578T breast = tested on: HS 578T breast
HT29 colon = tested on: HT29 colon
IGROV1 ovarian = tested on: IGROV1 ovarian
K-562 leukemia = tested on: K-562 leukemia
KM12 colon = tested on: KM12 colon
LOX IMVI melanoma = tested on: LOX IMVI melanoma
M14 melanoma = tested on: M14 melanoma
MALME-3M melanoma = tested on: MALME-3M melanoma
MDA-MB-231 breast = tested on: MDA-MB-231 breast
MDA-MB-435 = tested on: MDA-MB-435
MOLT-4 leukemia = tested on: MOLT-4 leukemia
NCI-H226 lung = tested on: NCI-H226 lung
NCI-H23 lung = tested on: NCI-H23 lung
NCI-H460 lung = tested on: NCI-H460 lung
NCI-H522 lung = tested on: NCI-H522 lung
NCI/ADR-RES ovarian = tested on: NCI/ADR-RES ovarian
OVCAR-3 ovarian = tested on: OVCAR-3 ovarian
OVCAR-4 ovarian = tested on: OVCAR-4 ovarian
OVCAR-5 ovarian = tested on: OVCAR-5 ovarian
OVCAR-8 ovarian = tested on: OVCAR-8 ovarian
PC-3 prostate = tested on: PC-3 prostate
RPMI-8226 leukemia = tested on: RPMI-8226 leukemia
RXF 393 renal = tested on: RXF 393 renal
SF-268 CNS = tested on: SF-268 CNS
SF-295 CNS = tested on: SF-295 CNS
SF-539 CNS = tested on: SF-539 CNS
SK-MEL-2 melanoma = tested on: SK-MEL-2 melanoma
SK-MEL-28 melanoma = tested on: SK-MEL-28 melanoma
SK-MEL-5 melanoma = tested on: SK-MEL-5 melanoma
SK-OV-3 ovarian = tested on: SK-OV-3 ovarian
SN12C renal = tested on: SN12C renal
SNB-19 CNS = tested on: SNB-19 CNS
SNB-75 CNS = tested on: SNB-75 CNS
SR leukemia = tested on: SR leukemia
SW-620 colon = tested on: SW-620 colon
T-47D breast = tested on: T-47D breast
TK-10 renal = tested on: TK-10 renal
U251 CNS = tested on: U251 CNS
UACC-257 melanoma = tested on: UACC-257 melanoma
UACC-62 melanoma = tested on: UACC-62 melanoma
UO-31 renal = tested on: UO-31 renal

C=C1C(=O)O[C@H]2[C@H]1CC/C(COC(=O)CCCCCCC(=O)OC/C1=C/CC[C@@]3(C)O[C@H]3[C@H]3OC(=O)C(=C)[C@@H]3CC1)=C\CC[C@@]1(C)O[C@@H]21
GI50 (786-0 renal): 1.84 µM | TGI (786-0 renal): 3.87 µM | GI50 (A498 renal): 15.3 µM | TGI (A498 renal): 30.5 µM | GI50 (A549 NSCLC): 16.9 µM | TGI (A549 NSCLC): 45 µM | GI50 (ACHN renal): 2.56 µM | TGI (ACHN renal): 8.98 µM | GI50 (BT-549 breast): 1.81 µM | TGI (BT-549 breast): 4.33 µM | GI50 (CCRF-CEM leukemia): 1.11 µM | TGI (CCRF-CEM leukemia): 5.89 µM | GI50 (COLO 205 colon): 2 µM | TGI (COLO 205 colon): 4.26 µM | GI50 (DU-145 prostate): 5.59 µM | TGI (DU-145 prostate): 17.7 µM | GI50 (EKVX NSCLC): 3.66 µM | TGI (EKVX NSCLC): 16.1 µM | GI50 (HCC-2998 colon): 3.76 µM | TGI (HCC-2998 colon): 12.5 µM | GI50 (HCT-15 colon): 2.63 µM | TGI (HCT-15 colon): 10.1 µM | GI50 (HL-60(TB) leukemia): 1.5 µM | TGI (HL-60(TB) leukemia): 4.23 µM | GI50 (HOP-62 NSCLC): 6.69 µM | TGI (HOP-62 NSCLC): 22.9 µM | GI50 (HOP-92 NSCLC): 2.24 µM | TGI (HOP-92 NSCLC): 8.14 µM | GI50 (HS 578T breast): 2.3 µM | TGI (HS 578T breast): 8.7 µM | GI50 (HT29 colon): 2.41 µM | TGI (HT29 colon): 4.9 µM | GI50 (IGROV1 ovarian): 2.91 µM | TGI (IGROV1 ovarian): 10.5 µM | GI50 (K-562 leukemia): 2.73 µM | TGI (K-562 leukemia): 11.1 µM | GI50 (KM12 colon): 3.84 µM | TGI (KM12 colon): 16.9 µM | GI50 (LOX IMVI melanoma): 1.58 µM | TGI (LOX IMVI melanoma): 3.12 µM | GI50 (M14 melanoma): 2.48 µM | TGI (M14 melanoma): 8.55 µM | GI50 (MALME-3M melanoma): 2.55 µM | TGI (MALME-3M melanoma): 7.05 µM | GI50 (MDA-MB-231 breast): 2.28 µM | TGI (MDA-MB-231 breast): 5.94 µM | GI50 (MDA-MB-435): 3.33 µM | TGI (MDA-MB-435): 14.2 µM | GI50 (MOLT-4 leukemia): 2.4 µM | TGI (MOLT-4 leukemia): 9.93 µM | GI50 (NCI-H226 lung): 2.39 µM | TGI (NCI-H226 lung): 6.65 µM | GI50 (NCI-H23 lung): 2.94 µM | TGI (NCI-H23 lung): 12.6 µM | GI50 (NCI-H460 lung): 5.36 µM | TGI (NCI-H460 lung): 23.9 µM | GI50 (NCI-H522 lung): 1.92 µM | TGI (NCI-H522 lung): 3.45 µM | GI50 (NCI/ADR-RES ovarian): 4.26 µM | TGI (NCI/ADR-RES ovarian): 29.6 µM | GI50 (OVCAR-3 ovarian): 2.55 µM | TGI (OVCAR-3 ovarian): 10 µM | GI50 (OVCAR-4 ovarian): 3.23 µM | TGI (OVCAR-4 ovarian): 13.8 µM | GI50 (OVCAR-5 ovarian): 2.54 µM | TGI (OVCAR-5 ovarian): 7.5 µM | GI50 (OVCAR-8 ovarian): 3 µM | TGI (OVCAR-8 ovarian): 10.3 µM | GI50 (PC-3 prostate): 2.74 µM | TGI (PC-3 prostate): 7.98 µM | GI50 (RPMI-8226 leukemia): 2.27 µM | TGI (RPMI-8226 leukemia): 6.42 µM | GI50 (RXF 393 renal): 1.61 µM | TGI (RXF 393 renal): 3.33 µM | GI50 (SF-268 CNS): 3.51 µM | TGI (SF-268 CNS): 14.3 µM | GI50 (SF-295 CNS): 10.8 µM | TGI (SF-295 CNS): 24.7 µM | GI50 (SF-539 CNS): 2.52 µM | TGI (SF-539 CNS): 7 µM | GI50 (SK-MEL-2 melanoma): 12.6 µM | TGI (SK-MEL-2 melanoma): 29.7 µM | GI50 (SK-MEL-28 melanoma): 2.95 µM | TGI (SK-MEL-28 melanoma): 10.2 µM | GI50 (SK-MEL-5 melanoma): 4.83 µM | TGI (SK-MEL-5 melanoma): 16.6 µM | GI50 (SK-OV-3 ovarian): 35.9 µM | TGI (SK-OV-3 ovarian): > 100 µM | GI50 (SN12C renal): 2.9 µM | TGI (SN12C renal): 11.2 µM | GI50 (SNB-19 CNS): 7.17 µM | TGI (SNB-19 CNS): 24.1 µM | GI50 (SNB-75 CNS): 12.9 µM | TGI (SNB-75 CNS): 36.6 µM | GI50 (SR leukemia): 1.51 µM | TGI (SR leukemia): 9.88 µM | GI50 (SW-620 colon): 2.18 µM | TGI (SW-620 colon): 6.24 µM | GI50 (T-47D breast): 3.48 µM | TGI (T-47D breast): 10.8 µM | GI50 (TK-10 renal): 3.46 µM | TGI (TK-10 renal): 9.42 µM | GI50 (U251 CNS): 2.96 µM | TGI (U251 CNS): 10.3 µM | GI50 (UACC-257 melanoma): 2.1 µM | TGI (UACC-257 melanoma): 6.22 µM | GI50 (UACC-62 melanoma): 5.47 µM | TGI (UACC-62 melanoma): 20.2 µM | GI50 (UO-31 renal): 1.58 µM | TGI (UO-31 renal): 4.37 µM
